US20040208864A1, “Methods of improving health-related quality of life in individuals with systemic lupus erythematosus” (priority 2002, published 2004)
“Also recorded” adds a separate entry of the source.

Legend:
[1] = tested on: anti-dsDNA antibodies; assay: Anti-dsDNA antibody levels (Farr assay), Phase III study; assay type: in vivo, human; conditions: for Frequency of patients with sustained reductions in anti-dsDNA antibodies compared with placebo: Phase III (90-09), sustained = at least 10% below baseline for at least 2/3 of values
Method: (§1) Two studies (Phase II/III or 90-05, and Phase III or 90-09) were conducted as described in Examples 1-2 and 12. […] Patients completed the SF-36® assessment at entry, followed by three additional time points in the trial depending on how long they participated. […] The Phase II/III trial enrolled 198 lupus patients with high-affinity antibodies who were treated for up to 18 months.
(§2) Patients selection, duration of treatment, assay type were in these studies are further detailed in Table 5. All laboratory values were determined at a central laboratory. Baseline anti-dsDNA antibody levels were calculated as the mean of the last 2 determinations prior to initial administration of the study drug. Baseline values for all other laboratory measures were determined immediately before administration of the study drug. The upper limit of normal for the anti-dsDNA antibody assay at the central laboratory was 5 IU/ml.
(§3) (Sustained reduction of 10% was based on the percent coefficient of variation of the Farr assay as reported in the assay labeling. At least ⅔ of observations were required to meet this criterion to assure the majority of values were represented for a patient.) All anti-dsDNA antibody values collected were used to determine if a patient met the criterion for sustained reduction. Anti-dsDNA antibody values subsequent to HDCC were considered treatment failures and these values were imputed to have a value equivalent to baseline.

[2] = tested on: SLE patients; assay: SF-36 health-related quality of life, Phase III (90-09) trial of LJP 394 vs placebo; assay type: in vivo, human; conditions: for Longitudinal differences in HRQOL (SF-36 domain scores) drug-treated vs placebo-treated: various time points, all patients
Method: Patients were treated with weekly doses of 100 mg of LJP 394 or with placebo. Patients were also permitted to receive certain other treatments including some but not all immunosuppressive drugs using a definition similar to Example 2. This randomized, double-blind, placebo-controlled study was conducted at more than 70 major medical centers in North America and Europe. Patients could remain in the study for up to 92 weeks.
The prospectively defined analysis groups were the intent-to-treat population and patients with impaired renal function. The intent-to-treat population was defined as patients with high-affinity antibodies to LJP 394. The patients with high-affinity antibodies to LJP 394 were those with a Kd′<0.8 mg/ml. Patients with impaired renal function were defined as having a serum creatinine level of 1.5 mg/dL to 3.5 mg/dL at baseline. In general, patients with impaired renal function are at greater risk of progressing to renal flare, kidney failure, and dialysis.
Complement changes were evaluated by determining the mean change from baseline in the complement protein C3 that indicates overall complement consumption due to active inflammation. Antibody changes were evaluated by determining the mean percent change of antibodies to dsDNA from baseline. Patients' assessments of disease activity and health-related quality of life were measured on a regular basis as well as at the time of, and 30 days following, a documented renal flare.
as §1
As described above in the detailed description of the invention, HRQOL is an assessment of a patient's sense of physical and mental well-being or how they feel. In the Phase II/III and Phase III studies, HRQOL was measured by a standard scoring instrument called the Medical Outcomes Study 36-Item Short Form (SF-36′). The SF-36® Health Survey is a standardized tool used in clinical research to measure a patient's assessment of quality of life outcomes related to disease and disease treatment. The Survey asked 36 questions related to how well a patient can perform day-to-day activities and how they feel emotionally. The answers were then reported as scores in eight domains. These domains are physical functioning, role-physical, bodily pain, general health, vitality, social functioning, role-emotional and mental health. SF-36@ was measured in both Phase III and II/III.

[3] = tested on: anti-dsDNA antibodies; assay: Anti-dsDNA antibody levels (Farr assay), Phase II/III study; assay type: in vivo, human; conditions: for Frequency of patients with sustained reductions in anti-dsDNA antibodies compared with placebo: Phase II/III (90-05), sustained = at least 10% below baseline for at least 2/3 of values
Method: as §1, §2, §3

[4] = tested on: B cells; conditions: mice; cited from earlier work
[5] = tested on: anti-dsDNA; conditions: patients with SLE; cited from earlier work

In the case of “abetimus sodium (sense GTGTGTGTGTGTGTGTGTGT; antisense CACACACACACACACACACA; sense: DNA, backbone not given here; antisense: DNA, backbone and methylation of C not given here; four deoxynucleotide duplexes bound to triethylene glycol valency platform) [LJP 394, tetravalent conjugate: four (CA)10.(TG)10 double-stranded 20-mer oligonucleotides on a triethylene glycol based valency platform]”, the “# Patients with sustained reduction” value ([1]; Phase III) is reported as 80, the “# Patients, Other (no sustained reduction)” value ([1]; Phase III) is reported as 65 and the “Frequency of patients with sustained reductions in anti-dsDNA antibodies compared with placebo” value [1] is reported as “higher frequency; also recorded: Four times as many; also recorded: Twice as many; also recorded: more frequent”. The “Frequency of patients with sustained reductions in anti-dsDNA antibodies compared with placebo” value ([1]; listed as LJP394) was “Twice as many”, the “Change in anti-dsDNA antibodies from baseline compared with placebo” value ([1]; Phase III, p<0.0001) was “statistically significant decrease” and the “Mean SF-36 domain scores after renal flare compared with placebo” value ([2]; after renal flare) was “remained better than placebo patients; also recorded: remained better than placebo patients'”. For the same substance, the “Mean SF-36 domain scores before renal flare compared with placebo” value ([2]; before renal flare) was “improved HRQOL scores before the renal flare compared with placebo; also recorded: higher for LJP394 treated patients in all domains”, the “SF-36 domain score changes pre/post renal flare compared with placebo” value ([2]; pre vs post renal flare) was “seven of eight domains; also recorded: better HRQOL compared with Placebo patients in all domains except physical functioning” and the “Longitudinal differences in HRQOL (SF-36 domain scores) drug-treated vs placebo-treated” value [2] was “not significantly different”. The “Longitudinal differences in HRQOL (SF-36 domain scores) drug-treated vs placebo-treated” value ([2]; listed as Riquent™) was “No substantive differences”, the “# Patients with sustained reduction” value ([3]; Phase II/III) was 54 and the “# Patients, Other (no sustained reduction)” value ([3]; Phase II/III) was 38. For the same substance, the “Frequency of patients with sustained reductions in anti-dsDNA antibodies compared with placebo” value [3] was “higher frequency; also recorded: more frequent”, the “Frequency of patients with sustained reductions in anti-dsDNA antibodies compared with placebo” value ([3]; listed as LJP394) was “Four times as many” and the “Change in anti-dsDNA antibodies from baseline compared with placebo” value ([3]; Phase II/III, p<0.0001) was “statistically significant decrease”. The “Induction of antigen-specific B-cell tolerance” value [4] was “induce antigen-specific B-cell tolerance” and the “Effect on anti-dsDNA titers” value [5] was “selectively reduces anti-dsDNA titers”.
